≈ marks a conversion by molar mass, not a printed value. Blank lines part the entries; values can stand above or below the compound they belong to. *1 amine or outer side, *2 acyl side, *3 side chain or, on linkers, in order; H or OH if unused. Where a SMILES comes first, the peptide text is derived from it. Bridges are numbered along the chain shown (N, C = ends). Roman numbers before positions name the chains, in order. [ ]: non-standard residue; d: D form. Actinocin(1to9) = Cc1c2oc3c(C)ccc(C(=O)[*:2])c3nc-2c(C(=O)[*:1])c(N)c1=O; NMeV = CN[C@H](C(=O)O)C(C)C; Sar = CNCC(=O)O
Experiments:
MCF7 [1] = test: Cytotoxicity against human MCF7 cells assessed as reduction in cell viability incubated for 24 hrs by MTT assay; format: functional, cell-based; conditions: MCF7, 24 h
A549 [2] = test: Cytotoxicity against human A549 cells assessed as reduction in cell viability incubated for 24 hrs by MTT assay; format: functional, cell-based; conditions: A549, 24 h
HepG2 = test: Cytotoxicity against human HepG2 cells assessed as reduction in cell viability incubated for 24 hrs by MTT assay; format: functional, cell-based; conditions: HepG2, 24 h
HCT-116 = test: Cytotoxicity against human HCT-116 cells assessed as reduction in cell viability incubated for 24 hrs by MTT assay; format: functional, cell-based; conditions: HCT-116, 24 h
MDA-MB-231 = test: Cytotoxicity against human MDA-MB-231 cells assessed as reduction in cell viability incubated for 48 hrs by MTT assay; format: functional, cell-based; conditions: MDA-MB-231, 48 h
A549 [3] = test: Cytotoxicity against human A549 cells assessed as reduction in cell viability incubated for 72 hrs by MTT assay; format: functional, cell-based; conditions: A549, 72 h
HT-29 = test: Cytotoxicity against human HT-29 cells assessed as reduction in cell viability incubated for 72 hrs by MTT assay; format: functional, cell-based; conditions: HT-29, 72 h
A549 [4] = test: Antiproliferative activity against human A549 cells assessed as reduction in cell viability by MTT assay; format: functional, cell-based
NCI-H460 = test: Antiproliferative activity against human NCI-H460 cells assessed as reduction in cell viability by MTT assay; format: functional, cell-based
K562 = test: Growth inhibition of human K562 cells at 10 uM incubated for 24 hrs by MTT assay; format: functional; conditions: read-out: GI
PC-3 = test: Cytotoxicity against human PC-3 cells assessed as reduction in cell growth measured for 48 hrs by MTT assay; format: functional, cell-based; conditions: PC-3, 48 h
DU-145 = test: Cytotoxicity against human DU-145 cells assessed as reduction in cell growth measured for 48 hrs by MTT assay; format: functional, cell-based; conditions: DU-145, 48 h
MCF7 [5] = test: Cytotoxicity against human MCF7 cells assessed as reduction in cell viability by MTT assay; format: functional, cell-based
WiDr = test: Growth inhibition of human WiDr cells; format: functional
SW1573 = test: Growth inhibition of human SW1573 cells; format: functional
HBL-100 = test: Growth inhibition of human HBL-100 cells; format: functional
T47D = test: Growth inhibition of human T47D cells; format: functional
HeLa = test: Growth inhibition of human HeLa cells; format: functional
A549 [6] = test: Growth inhibition of human A549 cells; format: functional
B16-F10 = test: Cytotoxicity against mouse B16-F10 cells assessed as reduction in cell viability incubated for 48 hrs by MTT assay; format: functional, cell-based; conditions: B16-F10, 48 h

Structure (SMILES): N#CC1=C(N)Oc2c(cc(Cl)c3cccnc23)C1c1cccc(Cl)c1Cl (stereo unspecified)
IC50 (MCF7 [1]): 2.47 µg/mL (≈ 6.13 µM) | IC50 (A549 [2]): 15.6 µg/mL (≈ 38.7 µM) | IC50 (HepG2): 1.48 µg/mL (≈ 3.68 µM) | IC50 (HCT-116): 7.94 µg/mL (≈ 19.7 µM)

Structure (SMILES): COc1ncccc1-c1cc(-c2cn(Cc3ccccc3F)nn2)cc2ccc(C)nc12
IC50 (MDA-MB-231): 19.8 µM

Structure (SMILES): N#CC1=C(N)Oc2c(ccc3cccnc23)C1c1cccc(Cl)c1 (stereo unspecified)
IC50 (MCF7 [1]): 1.42 µg/mL (≈ 4.25 µM) | IC50 (A549 [2]): 1.23 µg/mL (≈ 3.69 µM) | IC50 (HepG2): 1.87 µg/mL (≈ 5.6 µM) | IC50 (HCT-116): 1.35 µg/mL (≈ 4.04 µM)

Structure (SMILES): N#CC1=C(N)Oc2c(cc(Cl)c3cccnc23)C1c1cccc(Cl)c1 (stereo unspecified)
IC50 (MCF7 [1]): 0.9 µg/mL (≈ 2.44 µM) | IC50 (A549 [2]): 2.67 µg/mL (≈ 7.25 µM) | IC50 (HepG2): 0.7 µg/mL (≈ 1.9 µM) | IC50 (HCT-116): 3.04 µg/mL (≈ 8.26 µM)

Structure (SMILES): COc1cc(/C=C2\OCc3nc4ccccc4c(C)c3C2=O)cc(OC)c1OC
IC50 (A549 [3]): 3.68 µg/mL (≈ 9.4 µM) | IC50 (HT-29): 6.69 µg/mL (≈ 17.1 µM)

IC50 (A549 [4]): 11.2 µM | IC50 (NCI-H460): 7.1 µM
Structure (SMILES): COc1ccc(Nc2nc3ccccc3c(Nc3ccc(OC)cc3)c2[N+](=O)[O-])cc1

Structure (SMILES): COc1ccc(-c2cn3c4c(cccc24)CCC3)cc1
inhibition of growth at 10 µM (K562): 66%

Structure (SMILES): COc1cc(/C=C2\OCc3nc4ccccc4c(-c4ccccc4)c3C2=O)cc(OC)c1OC
IC50 (A549 [3]): 4.82 µg/mL (≈ 10.6 µM) | IC50 (HT-29): 7.69 µg/mL (≈ 17 µM)

Structure (SMILES): O=C1N(c2ccccc2S)c2[nH]c(=O)[nH]c(=O)c2C12c1ccccc1Nc1c2[nH]c(=O)[nH]c1=O (stereo unspecified)
IC50 (PC-3): 18.4 µM | IC50 (DU-145): 17.7 µM

Structure (SMILES): COC(=O)c1c(C(F)(F)F)nc2c(c1-c1ccc(S(=O)(=O)c3ccccc3)cc1)C(=O)CC(C)(C)C2
IC50 (MCF7 [5]): 0.002 µM

Structure (SMILES): N#CC1=C(N)Oc2c(cc(Cl)c3cccnc23)C1c1ccc(Cl)cc1Cl (stereo unspecified)
IC50 (MCF7 [1]): 1.18 µg/mL (≈ 2.93 µM) | IC50 (A549 [2]): 1.79 µg/mL (≈ 4.45 µM) | IC50 (HepG2): 0.87 µg/mL (≈ 2.16 µM) | IC50 (HCT-116): 3.01 µg/mL (≈ 7.48 µM)

GI50 (SW1573): 6 µM | GI50 (T47D): 16 µM | GI50 (HeLa): 11 µM | GI50 (A549 [6]): 9.5 µM
Structure (SMILES): COc1cc2nccc(Oc3ccc(NC(=O)C4(C(=O)Nc5ccc(F)cc5)CC4)cc3)c2cc1OC [CABOZANTINIB]
GI50 (WiDr): 14 µM | GI50 (HBL-100): 17 µM

Structure (SMILES): COc1cc2c(Oc3ccc4[nH]c(C)cc4c3F)ccnc2cc1OCC1(N)CC1 [CATEQUENTINIB]
IC50 (MDA-MB-231): 17 µM

Structure (SMILES): Cc1c2oc3c(C)ccc(C(=O)N[C@@H]4C(=O)N[C@H](C(C)C)C(=O)N5CCC[C@H]5C(=O)N(C)CC(=O)N(C)[C@@H](C(C)C)C(=O)O[C@@H]4C)c3nc-2c(C(=O)N[C@@H]2C(=O)N[C@H](C(C)C)C(=O)N3CCC[C@H]3C(=O)N(C)CC(=O)N(C)[C@@H](C(C)C)C(=O)O[C@@H]2C)c(N)c1=O [DACTINOMYCIN] (I: T[dV]P[Sar][NMeV] / II: T[dV]P[Sar][NMeV]; ester I:1-I:C, II:1-II:C; linker I:N-II:N via Actinocin(1to9))
IC50 (B16-F10): 13.4 µM

GI50 (SW1573): 8 µM | GI50 (T47D): 10 µM | GI50 (HeLa): 4 µM | GI50 (A549 [6]): 12 µM
Structure (SMILES): COc1cc2nccc(Oc3ccc(NC(=O)NC4CC4)c(Cl)c3)c2cc1C(N)=O [LENVATINIB]
GI50 (WiDr): 19 µM | GI50 (HBL-100): 10 µM

Structure (SMILES): CNC(=O)c1cccc2cc(Oc3ccnc4cc(OCC5(N)CC5)c(OC)cc34)ccc12 [LUCITANIB]
IC50 (B16-F10): 16.3 µM

Structure (SMILES): CCOc1cc2ncc(C#N)c(Nc3ccc(OCc4ccccn4)c(Cl)c3)c2cc1NC(=O)/C=C/CN(C)C [NERATINIB]
GI50 (HBL-100): 1.6 µM

GI50 (SW1573): 20 µM | GI50 (T47D): 16 µM | GI50 (HeLa): 8.3 µM | GI50 (A549 [6]): 7.7 µM
Structure (SMILES): CCOc1cc2ncc(C#N)c(Nc3ccc(F)c(Cl)c3)c2cc1NC(=O)/C=C/CN(C)C [PELITINIB]
GI50 (WiDr): 12 µM | GI50 (HBL-100): 19 µM

Structure (SMILES): COC1=C(N)C(=O)c2nc(-c3nc(C(=O)O)c(C)c(-c4ccc(OC)c(OC)c4O)c3N)ccc2C1=O [STREPTONIGRIN]
IC50 (MDA-MB-231): 30.5 µM

Structure (SMILES): COc1cc2nccc(Oc3ccc(NC(=O)Nc4cc(C)on4)c(Cl)c3)c2cc1OC [TIVOZANIB]
IC50 (B16-F10): 18.8 µM

From ChEMBL document CHEMBL5608170, “An insight into sustainable and green chemistry approaches for the synthesis of quinoline derivatives as anticancer agents” (Eur J Med Chem, 2024)
